From US20240192197A1, “NOVEL SCREENING SYSTEM FOR DRUG TARGET ANTAGONIST BASED ON CELL LIFE/DEATH PHENOTYPE” (CENTER FOR EXCELLENCE IN MOLECULAR CELL SCIENCE, CHINESE …, priority 2021, published 2024)

Target: T1, FKBP12(F36V)-ΔCASP9 fusion protein (Homo sapiens, UniProt P55211+P62942, F37V)
T1 construct: expressed in transfected cells
Experiment: Verification of screening cell lines: AP1903-induced death of cells expressing target protein-FKBP12(F36V)-ΔCASP9 fusion
Assay type: cell-based
Conditions: no target protein degradation agent present
Text: The screening system of the F-C fusion protein of the present invention can be applied to important targets of various diseases.

T1 sequence (P62942+P55211 fused P62942:F37V): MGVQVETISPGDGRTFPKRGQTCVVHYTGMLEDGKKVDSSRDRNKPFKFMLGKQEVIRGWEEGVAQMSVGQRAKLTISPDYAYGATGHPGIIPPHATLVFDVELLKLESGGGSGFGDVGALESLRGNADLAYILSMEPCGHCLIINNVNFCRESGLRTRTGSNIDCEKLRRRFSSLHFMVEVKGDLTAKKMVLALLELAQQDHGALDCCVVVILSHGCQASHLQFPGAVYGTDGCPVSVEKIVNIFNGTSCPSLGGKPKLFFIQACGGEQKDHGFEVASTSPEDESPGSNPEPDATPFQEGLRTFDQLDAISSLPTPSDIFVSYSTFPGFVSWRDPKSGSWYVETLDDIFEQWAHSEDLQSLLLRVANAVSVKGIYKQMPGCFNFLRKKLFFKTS

CC[C@H](C(=O)N1CCCC[C@H]1C(=O)O[C@H](CCc1ccc(OC)c(OC)c1)c1cccc(OCC(=O)NCCNC(=O)COc2cccc([C@@H](CCc3ccc(OC)c(OC)c3)OC(=O)[C@@H]3CCCCN3C(=O)[C@@H](CC)c3cc(OC)c(OC)c(OC)c3)c2)c1)c1cc(OC)c(OC)c(OC)c1 [AP1903]
state of cells expressing target protein-FKBP12(F36V)-ΔCASP9 fusion after AP1903: cells are dead
